# Columns and labels:
# Format in all cases: cell-based
# [1] = test system: murine melanoma cell line B16F10; assay: Growth inhibition assay (MTT), B16F10; conditions: Table VI, 6 days incubation
# Procedure: (§1) As another example of evaluation of cytotoxicity, cancer cell lines were also used for a growth inhibition assay. The human colon cancer cell lines SW 480 and HT 29 and the murine melanoma cell line B16F10 were used. […] After confluent growth, the cells were trypsinated and resuspended in RPMI plus 10% FCS to a cell concentration of 50000 cells per ml in case of colon cancer cell lines and 20000 in case of B16F10. 100 μl of this cell suspension were transferred in each well of a 96 well microtiter plate and incubated for 1 day at 37° C. in a CO2-incubator. Subsequently, further 100 μl RPMI medium and 1 μl of a DMSO solution, containing the artemisinin derivatives were added. The growth inhibition was estimated after 6 days incubation at 36° C. using the MTT assay.
# (§2) 25 μl MTT solution (3-(4,5-dimethylthiazol-2-yl)-2,5-diphenyltetrazolium-bromid) of a starting concentration of 5 mg/ml H2O were added and incubated at 37° C. for 5 h. Subsequently, 100 μl iso-propanol per well were added. After 15 min incubation 100 μl H2O were added. After 30 min shaking, the extinction was measured at 595 nm using a ELISA-Multiplate Reader.
# [2] = test system: human colon cancer cell line SW 480; assay: Growth inhibition assay (MTT), SW 480; conditions: Table VI, 6 days incubation
# Procedure: as §1, §2
# [3] = test system: human colon cancer cell line HT 29; assay: Growth inhibition assay (MTT), HT 29; conditions: Table VI, 6 days incubation
# Procedure: as §1, §2
# [4] = test system: Rat 6 subclone of the immortalized F2408 embryo cell line (R6); assay: Screening for cytotoxicity, cell count by Coulter Counter, R6 cells; conditions: for LD50 (Day 3) R6: day 3 after addition; for LD50 (Day 6) R6: day 6 after addition
# Procedure: (§3) Compounds of the invention were screened against Rat 6 subclone of the immortalized F2408 embryo cell line, and Rat 6 (R6T24) cells transfected and transformed by a c-H-ras oncogene. The screening involved placing the R6 and R6T24 cell lines plated at 10^3 cells per well into a 12-well microtiter culture plate for 24 hours. The compounds were added at final concentrations from 0.1-100 μM, and cells were trypsized and counted by Coulter Counter at day 3 and day 6 after the addition. Untreated cells were assigned a survival value of 100%.
# [5] = test system: Rat 6 (R6T24) cells transfected and transformed by a c-H-ras oncogene; assay: Screening for cytotoxicity, cell count by Coulter Counter, R6T24 cells; conditions: R6T24 cell line; for LD50 (Day 3) R6T24: day 3 after addition; for LD50 (Day 6) R6T24: day 6 after addition
# Procedure: as §3
Compound,LD50 B16F18 [1],LD50 SW 480 [2],LD50 HT 29 [3],LD50 (Day 3) R6 ([4]; Table VA),LD50 (Day 6) R6 ([4]; Table VA),LD50 (Day 3) R6T24 ([5]; Table VA),LD50 (Day 6) R6T24 ([5]; Table VA),LD50 (Day 3) R6 ([4]; Table V),LD50 (Day 6) R6 ([4]; Table V),LD50 (Day 3) R6T24 ([5]; Table V),LD50 (Day 6) R6T24 ([5]; Table V)
10α and β-[(2′-naphthylmethyl)oxy]dihydroartemisinin [Example 13β],400 nM,300 nM,600 nM,–,–,–,–,–,–,–,–
"CC1CCC2C(C)C(Oc3ccnc4cc(C(F)(F)F)ccc34)OC3OC4(C)CCC1C32OO4 (stereo not drawn) [Example 12, 10β-[4′-(7′-trifluoromethyl-quinolinoxy)]dihydroartemisinin]",300 nM,150 nM,2000 nM,–,–,–,–,–,–,–,–
Cc1cc(C)c(C2O[C@@H]3O[C@@]4(C)CC[C@H]5[C@H](C)CC[C@@H]([C@H]2C)[C@@]35OO4)cc1C (some centres unmarked) [Example 61],250 nM,150 nM,300 nM,–,–,–,–,–,–,–,–
COc1cc(OC)c(C2O[C@@H]3O[C@@]4(C)CC[C@H]5[C@H](C)CC[C@@H]([C@H]2C)[C@@]35OO4)c(OC)c1 (some centres unmarked) [Example 59],1500 nM,1500 nM,1500 nM,–,–,–,–,–,–,–,–
C[C@@H]1CC[C@H]2[C@@H](C)C(N3CCN(C)CC3)O[C@@H]3O[C@@]4(C)CC[C@@H]1[C@]32OO4 (some centres unmarked) [Example 51],–,–,–,0.33 µM,0.12 µM,0.33 µM,0.11 µM,–,–,–,–
C[C@@H]1CC[C@H]2[C@@H](C)C(Nc3ccc(F)cc3)O[C@@H]3O[C@@]4(C)CC[C@@H]1[C@]32OO4 (some centres unmarked) [Example 31],–,–,–,0.34 µM,0.27 µM,0.23 µM,0.14 µM,0.34 µM,0.27 µM,0.23 µM,0.14 µM
COc1ccccc1C1O[C@@H]2O[C@@]3(C)CC[C@H]4[C@H](C)CC[C@@H]([C@H]1C)[C@@]24OO3 (some centres unmarked) [Example 29],>10000 nM,>10000 nM,>10000 nM,–,–,–,–,–,–,–,–
C[C@@H]1CC[C@H]2[C@@H](C)C(=O)N(Cc3cccc(F)c3)[C@@H]3O[C@@]4(C)CC[C@@H]1[C@@]23OO4 [Example 87],–,–,–,–,–,–,–,>50.00 µM,17.5 µM,6.14 µM,1.07 µM
"CC[C@@]1(O)C(=O)OCc2c1cc1n(c2=O)Cc2cc3ccccc3nc2-1 [CAMPTOTHECIN, reference compound]",30 nM,9 nM,4 nM,–,–,–,–,–,–,–,–
COc1cc(OC)c(C2OC3OC4(C)CCC5C(C)CCC(C2C)C35OO4)c(OC)c1 (mixture of isomers) [Example 27],–,–,–,0.57 µM,1.10 µM,0.67 µM,0.26 µM,0.57 µM,1.10 µM,0.67 µM,0.26 µM
"CO[C@H]1O[C@@H]2O[C@@]3(C)CC[C@H]4[C@H](C)CC[C@@H]([C@H]1C)[C@@]24OO3 [Artemether, artemether, reference compound]",–,–,–,>100 µM,0.6 µM,>100 µM,0.71 µM,>100.00 µM,1.0 µM,>100.00 µM,1.8 µM
"CC1CC[C@H]2[C@@H](C)C(=O)NC3O[C@]4(C)CCC1C32OO4 (some centres unmarked) [Example 14, 11-azaartemisinin]",–,–,–,>50 µM,1.22 µM,0.18 µM,0.09 µM,>50.00 µM,1.22 µM,0.18 µM,0.09 µM
"CC1CCC2[C@@H](C)C(=O)N(Cc3ccccc3)C3O[C@]4(C)CCC1C23O4 (some centres unmarked) [D, reference compound]",–,–,–,>50 µM,>50 µM,>50 µM,>50 µM,>50.00 µM,>50.00 µM,>50.00 µM,>50.00 µM
C[C@@H]1CC[C@H]2[C@@H](C)C(=O)N(Cc3ccccc3)[C@@H]3O[C@@]4(C)CC[C@@H]1[C@@]23OO4 [Example 88],–,–,–,47.0 µM,18.49 µM,10.45 µM,5.24 µM,46.67 µM,18.49 µM,10.45 µM,5.24 µM
"CCOC(=O)CCC1C(=O)OC2OC3(C)CCC4C(C)CCC1C24OO3 (centres unmarked) [Example 19, 9-[2-(ethoxycarbonyl)ethyl]artemisinin]",–,–,–,–,–,–,–,52.00 µM,59.00 µM,28.12 µM,24.95 µM
"CC1CCC2[C@@H](C)C(=O)OC3O[C@]4(C)CCC1C32OO4 (some centres unmarked) [Artemisinin, artemisinin, reference compound]",–,–,–,>100.00 µM,4.08 µM,3.49 µM,1.75 µM,>100.00 µM,4.08 µM,3.09 µM,1.75 µM
CC1CCC2C(C)C(OCc3cccc4c3ccc3ccccc34)OC3OC4(C)CCC1C32OO4 (centres unmarked) [Example 82],–,–,–,0.12 µM,0.12 µM,0.05 µM,0.06 µM,–,–,–,–
"CC1CCC2C(C)C(F)OC3OC4(C)CCC1C32OO4 (stereo not drawn) [Example 1, 10β-fluoro-10-deoxodihydroartemisinin]",–,–,–,1.28 µM,1.62 µM,1.93 µM,0.61 µM,1.18 µM,1.63 µM,1.93 µM,0.61 µM
CC1CCC2C(C)C(OC(=O)c3ccc4c(c3)C(=O)c3ccccc3C4=O)OC3OC4(C)CCC1C32OO4 (centres unmarked) [Example 66],–,–,–,0.34 µM,3.6 µM,0.32 µM,0.32 µM,0.34 µM,3.60 µM,0.32 µM,0.32 µM
C[C@@H]1CC[C@H]2[C@@H](C)C(OC(=O)c3c4ccccc4nc4ccccc34)O[C@@H]3O[C@@]4(C)CC[C@@H]1[C@]32OO4 (some centres unmarked) [Example 65],–,–,–,–,–,–,–,2.73 µM,2.52 µM,3.21 µM,1.60 µM
"CC1CCC2C(CN(Cc3ccccc3)Cc3ccccc3)C(=O)OC3OC4(C)CCC1C32OO4 (centres unmarked) [Example 17, 9-(N,N-dibenzylaminomethyl)artemisinin]",–,–,–,–,–,–,–,1.57 µM,2.58 µM,1.81 µM,0.54 µM
"C[C@H]1[C@H](OC(=O)CCC(=O)O)O[C@@H]2O[C@@]3(C)CC[C@H]4[C@H](C)CC[C@@H]1[C@@]24OO3 [Artesunate, artesunate, reference compound]",–,–,–,2.80 µM,2.08 µM,1.77 µM,1.04 µM,2.80 µM,2.06 µM,1.77 µM,1.04 µM

# From patent US6649647B1, “Trioxane derivatives” (priority 1998, dated 2003)
